Laboratory results from paper PMC12597562 (Molecular Pharmacology, 2025).

Assays:
human DAT [1] = molecular target: T1, human DAT (Homo sapiens, UniProt Q01959); test: […]RTI-55 competition binding, cell membranes; details: read-out: Inhibition of [^125I]RTI-55 Binding pKi ± SD (n) (converted)
T1 construct: gene SLC6A3; full-length codon-optimized human DAT with N-terminal mScarlet-I tag (subcloned from EYFP-DAT), stably expressed in TAAR1 KO HEK293 cells

human DAT [2] = molecular target: T1, human DAT; test: [3H]dopamine uptake inhibition, intact cells; format: cell-based
[3] = substrate: NCCc1ccc(O)c(O)c1; test: cells, lysate or membranes; details: TAAR1-/- DAT cells, vehicle pretreatment, 10 min uptake; labelled compound; n=4

Molecule: CCN(C[C@H]1COC(N)=N1)c1ccccc1 [RO5166017]
- Ki (human DAT [1]): 21.9 µM
- IC50 (human DAT [2]; read-out: Inhibition of [^3H]DA Uptake pIC50 ± SD (n) (converted)): 17.4 µM

Molecule: CC[C@@H](C[C@H]1COC(N)=N1)c1ccccc1 [RO5256390]
- Inhibition of [^3H]DA Uptake pIC50 ± SD (n) (human DAT [2]; 20 nM [3H]DA, 10 min preincubation, 10 min uptake, 25 °C, Krebs-HEPES buffer, n=6): 5.73 ± 0.23

B1: human DAT (Homo sapiens) (protein)
chain: MSKSKCSVGLMSSVVAPAKEPNAVGPKEVELILVKEQNGVQLTSSTLTNPRQSPVEAQDRETWGKKIDFLLSVIGFAVDLANVWRFPYLCYKNGGGAFLVPYLLFMVIAGMPLFYMELALGQFNREGAAGVWKICPILKGVGFTVILISLYVGFFYNVIIAWALHYLFSSFTTELPWIHCNNSWNSPNCSDAHPGDSSGDSSGLNDTFGTTPAAEYFERGVLHLHQSHGIDDLGPPRWQLTACLVLVIVLLYFSLWKGVKTSGKVVWITATMPYVVLTALLLRGVTLPGAIDGIRAYLSVDFYRLCEASVWIDAATQVCFSLGVGFGVLIAFSSYNKFTNNCYRDAIVTTSINSLTSFSSGFVVFSFLGYMAQKHSVPIGDVAKDGPGLIFIIYPEAIATLPLSSAWAVVFFIMLLTLGIDSAMGGMESVITGLIDEFQLLHRHRELFTLFIVLATFLLSLFCVTNGGIYVFTLLDHFAAGTSILFGVLIEAIGVAWFYGVGQFSDDIQQMTGQRPSLYWRLCWKLVSPCFLLFVVVVSIVTFRPPHYGAYIFPDWANALGWVIATSSMAMVPIYAAYKFCSLPGSFREKLAYAIAPEKDRELVDRGEVRQFTLRHWLKV
- Km [3]: 0.631 ± 0.26 µM
- Vmax [3]: 1.63e-06 µmol/min/mg
